Converted amounts (≈) assume the structure as drawn. Where a SMILES comes first, the peptide text is derived from it. Bridges are numbered along the chain shown (N, C = ends). [ ]: non-standard residue; d: D form. The star is where a group is joined. Pyrrole2carbonyl(4,5-Br2) = O=C(c1cc(Br)c(Br)[nH]1)*; Isoxazole(3-CO,5-Ph) = O=C(c1cc(-c2ccccc2)on1)*; X34 = O=C(c1cc(Br)c(Br)o1)*; Dab = NCC[C@H](N)C(=O)O; X61 = O=C(c1ccc(Br)s1)*; Abu = CC[C@H](N)C(=O)O; Dap = NC[C@H](N)C(=O)O
Legend:
Assay type in all cases: cell-based
[1] = system: Acinetobacter baumannii FADDI-AB030; test: microbe, parasite or virus in culture; settings: FADDI-AB030
Procedure, shortened: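 Lipopeptide TFA salts tested against the multidrug-resistant clinical isolate by CLSI (M100-S24) broth microdilution in cation-adjusted Mueller-Hinton broth, with polymyxin B sulphate as control; MIC read.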

[2] = system: Klebsiella pneumoniae FADDI-KP022; settings: FADDI-KP022
Procedure, shortened: (§1)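 Gram-negative bacteria susceptible to polymyxin were exposed to lipopeptide trifluoroacetates in CAMHB, and growth inhibition was read as the MIC by the CLSI microdilution protocol.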

[3] = system: Acinetobacter baumannii ATCC 17978; settings: ATCC 17978
Procedure, shortened: as §1

[4] = system: Pseudomonas aeruginosa FADDI-PA01; settings: FADDI-
Procedure, shortened: as §1

[5] = system: Pseudomonas aeruginosa FADDI-PA038; settings: FADDI-PA038
Procedure, shortened: as §1

[6] = system: Klebsiella pneumoniae FADDI-KP032; settings: FADDI-KP032
Procedure, shortened: as §1

[7] = system: Enterobacter cloacae FADDI-EC003; settings: FADDI-EC003
Procedure, shortened: as §1

[8] = system: Enterobacter cloacae FADDI-EC006; settings: FADDI-EC006
Procedure, shortened: as §1

[9] = system: Acinetobacter baumannii FADDI-AB034; settings: FADDI-AB034
Procedure, shortened: as §1

[10] = system: Pseudomonas aeruginosa FADDI-PA022; settings: FADDI-PA022
Procedure, shortened: as §1

[11] = system: Klebsiella pneumoniae Kp BM1; settings: Kp BM1
Procedure, shortened: (§2)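 Lipopeptide TFA salts were serially diluted in cation-adjusted Mueller-Hinton broth, inoculated with polymyxin-susceptible Gram-negative bacteria and scored for MIC according to CLSI guidance (M100-S24). Polymyxin B sulphate was included as comparator.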

[12] = system: Enterobacter cloacae FADDI-EC001; settings: FADDI-EC001
Procedure, shortened: as §2

[13] = system: Pseudomonas aeruginosa ATCC 27853; settings: ATCC 27853
Procedure, shortened: as §1

Row | SMILES | Minimum inhibitory concentration [1] | Minimum inhibitory concentration [2] | Minimum inhibitory concentration [3] | Minimum inhibitory concentration [4] | Minimum inhibitory concentration [5] | Minimum inhibitory concentration [6] | Minimum inhibitory concentration [7] | Minimum inhibitory concentration [8] | Minimum inhibitory concentration [9] | Minimum inhibitory concentration [10] | Minimum inhibitory concentration [11] | Minimum inhibitory concentration [12] | Minimum inhibitory concentration [13]
1 | CC[C@@H]1NC(=O)[C@@H](CC(C)C)NC(=O)[C@H](CCN)NC(=O)[C@@H](NC(=O)[C@H](CN)NC(=O)[C@@H](NC(=O)[C@H](CCN)NC(=O)c2cc(Br)c(Br)[nH]2)[C@@H](C)O)CCNC(=O)[C@H]([C@@H](C)O)NC(=O)[C@H](CCN)NC(=O)[C@H](CCN)NC1=O [Compound 77] ({Pyrrole2carbonyl(4,5-Br2)}-[Dab]T[Dap][Dab][Dab][dL][Abu][Dab][Dab]T; lactam 4-C) | 0.25 mg/L (≈ 0.202 µM) | <0.125 mg/L | 0.5 mg/L (≈ 0.404 µM) | 0.25 mg/L (≈ 0.202 µM) | 1 mg/L (≈ 0.808 µM) | 0.25 mg/L (≈ 0.202 µM) | 0.25 mg/L (≈ 0.202 µM) | <0.125 mg/L | 0.25 mg/L (≈ 0.202 µM) | 0.5 mg/L (≈ 0.404 µM) | <0.125 mg/L | 0.25 mg/L (≈ 0.202 µM) | 0.25 mg/L (≈ 0.202 µM)
2 | CC[C@@H]1NC(=O)[C@@H](CC(C)C)NC(=O)[C@H](CCN)NC(=O)[C@@H](NC(=O)[C@H](CN)NC(=O)[C@@H](NC(=O)[C@H](CCN)NC(=O)c2ccc(Br)s2)[C@@H](C)O)CCNC(=O)[C@H]([C@@H](C)O)NC(=O)[C@H](CCN)NC(=O)[C@H](CCN)NC1=O [Compound 78] (X61-[Dab]T[Dap][Dab][Dab][dL][Abu][Dab][Dab]T; lactam 4-C) | 0.5 mg/L (≈ 0.425 µM) | 0.25 mg/L (≈ 0.213 µM) | 0.25 mg/L (≈ 0.213 µM) | <0.125 mg/L | 0.5 mg/L (≈ 0.425 µM) | 0.5 mg/L (≈ 0.425 µM) | <0.125 mg/L | 0.25 mg/L (≈ 0.213 µM) | 1 mg/L (≈ 0.85 µM) | 0.25 mg/L (≈ 0.213 µM) | <0.125 mg/L | 0.25 mg/L (≈ 0.213 µM) | 0.25 mg/L (≈ 0.213 µM)
3 | CC[C@@H]1NC(=O)[C@@H](CC(C)C)NC(=O)[C@H](CCN)NC(=O)[C@@H](NC(=O)[C@H](CN)NC(=O)[C@@H](NC(=O)[C@H](CCN)NC(=O)c2cc(Br)c(Br)o2)[C@@H](C)O)CCNC(=O)[C@H]([C@@H](C)O)NC(=O)[C@H](CCN)NC(=O)[C@H](CCN)NC1=O [Compound 79] (X34-[Dab]T[Dap][Dab][Dab][dL][Abu][Dab][Dab]T; lactam 4-C) | 0.25 mg/L (≈ 0.202 µM) | <0.125 mg/L | 0.5 mg/L (≈ 0.404 µM) | 1 mg/L (≈ 0.807 µM) | 0.5 mg/L (≈ 0.404 µM) | <0.125 mg/L | <0.125 mg/L | 0.25 mg/L (≈ 0.202 µM) | 0.5 mg/L (≈ 0.404 µM) | 0.25 mg/L (≈ 0.202 µM) | 0.25 mg/L (≈ 0.202 µM) | <0.125 mg/L | 0.25 mg/L (≈ 0.202 µM)
4 | CC[C@@H]1NC(=O)[C@@H](CC(C)C)NC(=O)[C@H](CCN)NC(=O)[C@@H](NC(=O)[C@H](CN)NC(=O)[C@@H](NC(=O)[C@H](CCN)NC(=O)c2cc(-c3ccccc3)on2)[C@@H](C)O)CCNC(=O)[C@H]([C@@H](C)O)NC(=O)[C@H](CCN)NC(=O)[C@H](CCN)NC1=O [Compound 80] ({Isoxazole(3-CO,5-Ph)}-[Dab]T[Dap][Dab][Dab][dL][Abu][Dab][Dab]T; lactam 4-C) | 0.5 mg/L (≈ 0.432 µM) | <0.125 mg/L | 0.5 mg/L (≈ 0.432 µM) | 0.5 mg/L (≈ 0.432 µM) | 0.5 mg/L (≈ 0.432 µM) | 0.25 mg/L (≈ 0.216 µM) | 0.25 mg/L (≈ 0.216 µM) | 0.25 mg/L (≈ 0.216 µM) | 0.5 mg/L (≈ 0.432 µM) | 0.5 mg/L (≈ 0.432 µM) | 0.25 mg/L (≈ 0.216 µM) | 0.25 mg/L (≈ 0.216 µM) | 0.5 mg/L (≈ 0.432 µM)

Source: US11225505B2, “Antimicrobial polymyxin derivative compounds” (MONASH UNIVERSITY, priority 2015, dated 2022)
